Experimental data from paper PMC11249953, “c-KIT inhibitors reduce pathology and improve behavior in the Tg(SwDI) model of Alzheimer’s disease” (Life Science Alliance, 2024).
Where “and” joins values, the source holds several entries; their conditions need not be identical. Equal values may be shown once.

Assays:
KIT (V559D) = target: T1, KIT (V559D) (Homo sapiens, UniProt P10721, V559D); test: KINOMEscan competition binding, KIT (V559D); settings: 10 µM compound
T1 construct: DNA label for qPCR read-out (T7 phage fusion or DNA tag); purchased Eurofins DiscoverX Corporation; host or cells: T7 phage in E. coli (BL21-derived) or HEK-293
Procedure: (§1) The KINOMEscan screening platform (Eurofins DiscoverX Corporation) was performed using active site-directed competition binding assay to quantitatively measure interactions between BK40143 and BK40197 and more than 450 human kinases and disease relevant mutant variants. […] Screening “hits” are identified by measuring the amount of kinase captured in test (BK40143 and BK40197) versus control samples by using a quantitative and ultra-sensitive qRT-PCR method that detects the associated DNA label. BK40143 and BK40197 were screened at 10 µM concentration, and results for primary screen binding interactions were reported as “% Ctrl” (POC), where lower numbers indicate stronger hits and calculated as follows: [test compound signal−positive control signal/negative control signal−positive control signal]×100
(§2) negative control = DMSO (100% Ctrl)
(§3) positive control = control compound (0% Ctrl)
(§4) Based on screening data from of profiled compounds, a proportional relationship between primary screening results and corresponding compound/target affinities can be described as binding constants (Kd values) for the indicated ranges of POC values with tighter binding (higher affinity) interactions associated with lower POC values and weaker binding (lower affinity) associated with higher POC values. Briefly, kinase-tagged T7 phage strains were grown in parallel in 24-well blocks in an E. coli host derived from the BL21 strain. E. coli were grown to log-phase and infected with T7 phage from a frozen stock (multiplicity of infection = 0.4) and incubated with shaking at 32°C until lysis (90–150 min). The lysates were centrifuged (6,000g) and filtered (0.2 μm) to remove cell debris. The remaining kinases were produced in HEK-293 cells and subsequently tagged with DNA for qRT-PCR detection. Streptavidin-coated magnetic beads were treated with biotinylated small molecule ligands for 30 min at RT to generate affinity resins for kinase assays. The liganded beads were blocked with excess biotin and washed with blocking buffer (1% BSA, 0.05% Tween 20, 1 mM DTT; SeaBlock [Pierce]) to remove unbound ligand and to reduce non-specific phage binding. Binding reactions were assembled by combining kinases, liganded affinity beads, and test compounds in 1x binding buffer (20% 0.17x PBS, 0.05% Tween 20, 6 mM DTT; SeaBlock). Test compounds were prepared as 100x stocks in 100% DMSO and directly diluted into the assay. All reactions were performed in polypropylene 384-well plates in a final volume of 0.02 ml. The assay plates were incubated at RT with shaking for 1 h and the affinity beads were washed with wash buffer (1x PBS, 0.05% Tween 20). […] The kinase concentration in the eluates was measured by qRT-PCR.

DDR1 = target: T2, DDR1 (Homo sapiens, UniProt Q08345); test: KINOMEscan competition binding, DDR1; settings: 10 µM compound
T2 construct: DNA label for qPCR read-out (T7 phage fusion or DNA tag); purchased Eurofins DiscoverX Corporation; host or cells: T7 phage in E. coli (BL21-derived) or HEK-293
Procedure: as §1, §2, §3, §4

PIKFYVE = target: T3, PIKFYVE (Homo sapiens, UniProt Q9Y2I7); test: KINOMEscan competition binding, PIKFYVE; settings: 10 µM compound
T3 construct: DNA label for qPCR read-out (T7 phage fusion or DNA tag); purchased Eurofins DiscoverX Corporation; host or cells: T7 phage in E. coli (BL21-derived) or HEK-293
Procedure: as §1, §2, §3, §4

TgAPP mice = test: Morris water maze, TgAPP mice; assay type: in vivo, mouse; set-up: Platform Distance: unit not given beside the values; Total Distance / Quad Time / Quad Distance / Trial 1 D4 / Trial 1 D4 AVG: unit not given here
Procedure: The Morris water maze was performed using a water bath 6 ft in diameter and filled with roughly 1 ft of water. The maze was divided into four quadrants, each with a visual stimulus positioned on the wall of the maze in the center of the quadrant arc. A clear platform was placed in one quadrant just beneath the surface of the water. Mice were then placed in a random non-platform quadrant and allowed to swim freely for 60 s (time was stopped and recorded if the mouse found the platform) before being placed on the platform for 15 s and returned to their cage. This was repeated for each of the three quadrants each day for 4 d. On the 5th d, the platform was removed and mice were placed in the quadrant opposite of where the platform had been and allowed to swim freely for 1 min before being returned to their cage. Time spent in the correct quadrant, latency to the platform, number of platform entries, and number of quadrant entries were recorded.

[1] = tested on: amyloid-beta in TgAPP mice; test: ELISA for amyloid-beta in brain lysates; assay type: in vivo, mouse; settings: vs DMSO
Procedure: All samples were analyzed in parallel using the same reagents. A total of 25 μl soluble protein was incubated overnight at 4°C with 25 μl of a mixed bead solution. After washing, samples were incubated with 25 μl detection antibody solution for 1.5 h at RT. Streptavidin–phycoerythrin (25 μl) was added to each well containing the 25 μl of detection antibody solution. Samples were then washed and suspended in 100 μl of sheath fluid. Samples were then run on MAGPIX with Xponent software. The median fluorescent intensity data were analyzed using a five-parameter logistic or spline curve-fitting method for calculating analyte concentrations in samples. Specific pTau ser396 (KHB7031; Invitrogen), aggregated Aβ (KHB3491; Thermo Fisher Scientific), and Aβ42 (KHB3442; Invitrogen) were performed according to manufacturer’s protocol on tissue soluble extracts from brain lysates in 1XSTEN buffer.

[2] = MWM Probe, single animal values, listed as 197
[3] = MWM Probe, single animal values, listed as 197, in s (unit assumed)
[4] = MWM training, Day 1, single animal values, listed as 197
[5] = MWM training, Day 2, single animal values, listed as 197
[6] = MWM training, Day 3, single animal values, listed as 197
[7] = MWM training, Day 4, single animal values, listed as 197

T2 sequence (Q08345 19-913): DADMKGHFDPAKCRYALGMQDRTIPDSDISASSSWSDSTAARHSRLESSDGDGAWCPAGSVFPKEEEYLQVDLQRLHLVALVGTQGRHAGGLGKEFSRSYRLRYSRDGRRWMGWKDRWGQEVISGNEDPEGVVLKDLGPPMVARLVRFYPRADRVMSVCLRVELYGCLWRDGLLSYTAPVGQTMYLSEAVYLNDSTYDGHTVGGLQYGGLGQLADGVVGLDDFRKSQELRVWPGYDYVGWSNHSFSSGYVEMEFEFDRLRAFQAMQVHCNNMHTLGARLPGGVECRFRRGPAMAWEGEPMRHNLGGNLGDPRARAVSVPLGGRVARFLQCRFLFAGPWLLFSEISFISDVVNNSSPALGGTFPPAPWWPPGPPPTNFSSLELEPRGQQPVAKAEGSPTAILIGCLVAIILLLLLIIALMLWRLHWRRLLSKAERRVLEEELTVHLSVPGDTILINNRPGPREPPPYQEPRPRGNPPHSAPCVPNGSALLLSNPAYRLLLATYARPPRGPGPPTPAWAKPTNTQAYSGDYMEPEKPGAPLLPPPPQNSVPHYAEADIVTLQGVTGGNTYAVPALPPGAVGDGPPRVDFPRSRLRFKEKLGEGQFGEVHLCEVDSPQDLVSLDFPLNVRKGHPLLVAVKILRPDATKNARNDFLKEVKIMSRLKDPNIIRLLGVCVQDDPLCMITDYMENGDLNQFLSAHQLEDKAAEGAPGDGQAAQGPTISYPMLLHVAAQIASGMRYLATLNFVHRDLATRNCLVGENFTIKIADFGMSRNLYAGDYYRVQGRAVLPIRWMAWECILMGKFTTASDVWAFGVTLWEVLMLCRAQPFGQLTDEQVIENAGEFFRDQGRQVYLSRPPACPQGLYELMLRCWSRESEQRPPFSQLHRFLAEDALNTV
T1 sequence (P10721 26-976 V559D): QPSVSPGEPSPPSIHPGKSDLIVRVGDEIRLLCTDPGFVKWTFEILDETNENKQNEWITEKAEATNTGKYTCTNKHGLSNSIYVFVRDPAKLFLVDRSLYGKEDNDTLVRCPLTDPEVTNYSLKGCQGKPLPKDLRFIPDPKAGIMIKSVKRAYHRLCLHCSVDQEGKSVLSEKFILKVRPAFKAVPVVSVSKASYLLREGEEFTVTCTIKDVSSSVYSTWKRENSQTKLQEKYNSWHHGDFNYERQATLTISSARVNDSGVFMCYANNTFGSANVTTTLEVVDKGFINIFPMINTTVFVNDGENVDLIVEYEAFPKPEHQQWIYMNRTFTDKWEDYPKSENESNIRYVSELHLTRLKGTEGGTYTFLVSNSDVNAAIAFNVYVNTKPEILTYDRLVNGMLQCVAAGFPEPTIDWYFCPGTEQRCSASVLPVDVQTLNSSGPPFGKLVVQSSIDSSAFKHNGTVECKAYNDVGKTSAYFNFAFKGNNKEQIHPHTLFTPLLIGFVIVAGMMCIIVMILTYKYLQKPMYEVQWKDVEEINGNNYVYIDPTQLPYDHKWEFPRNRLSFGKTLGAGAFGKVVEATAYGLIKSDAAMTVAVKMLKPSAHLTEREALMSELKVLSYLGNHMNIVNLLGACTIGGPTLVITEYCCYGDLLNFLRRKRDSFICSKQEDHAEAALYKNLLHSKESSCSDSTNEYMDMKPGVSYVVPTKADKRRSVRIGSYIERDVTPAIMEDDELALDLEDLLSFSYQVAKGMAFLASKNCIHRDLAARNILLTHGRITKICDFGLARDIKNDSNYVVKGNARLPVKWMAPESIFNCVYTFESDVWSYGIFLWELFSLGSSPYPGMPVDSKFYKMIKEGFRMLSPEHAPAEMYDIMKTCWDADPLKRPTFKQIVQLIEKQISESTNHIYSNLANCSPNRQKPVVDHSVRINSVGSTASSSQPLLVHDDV
T3 sequence (Q9Y2I7 whole entry, the tested form may be a part): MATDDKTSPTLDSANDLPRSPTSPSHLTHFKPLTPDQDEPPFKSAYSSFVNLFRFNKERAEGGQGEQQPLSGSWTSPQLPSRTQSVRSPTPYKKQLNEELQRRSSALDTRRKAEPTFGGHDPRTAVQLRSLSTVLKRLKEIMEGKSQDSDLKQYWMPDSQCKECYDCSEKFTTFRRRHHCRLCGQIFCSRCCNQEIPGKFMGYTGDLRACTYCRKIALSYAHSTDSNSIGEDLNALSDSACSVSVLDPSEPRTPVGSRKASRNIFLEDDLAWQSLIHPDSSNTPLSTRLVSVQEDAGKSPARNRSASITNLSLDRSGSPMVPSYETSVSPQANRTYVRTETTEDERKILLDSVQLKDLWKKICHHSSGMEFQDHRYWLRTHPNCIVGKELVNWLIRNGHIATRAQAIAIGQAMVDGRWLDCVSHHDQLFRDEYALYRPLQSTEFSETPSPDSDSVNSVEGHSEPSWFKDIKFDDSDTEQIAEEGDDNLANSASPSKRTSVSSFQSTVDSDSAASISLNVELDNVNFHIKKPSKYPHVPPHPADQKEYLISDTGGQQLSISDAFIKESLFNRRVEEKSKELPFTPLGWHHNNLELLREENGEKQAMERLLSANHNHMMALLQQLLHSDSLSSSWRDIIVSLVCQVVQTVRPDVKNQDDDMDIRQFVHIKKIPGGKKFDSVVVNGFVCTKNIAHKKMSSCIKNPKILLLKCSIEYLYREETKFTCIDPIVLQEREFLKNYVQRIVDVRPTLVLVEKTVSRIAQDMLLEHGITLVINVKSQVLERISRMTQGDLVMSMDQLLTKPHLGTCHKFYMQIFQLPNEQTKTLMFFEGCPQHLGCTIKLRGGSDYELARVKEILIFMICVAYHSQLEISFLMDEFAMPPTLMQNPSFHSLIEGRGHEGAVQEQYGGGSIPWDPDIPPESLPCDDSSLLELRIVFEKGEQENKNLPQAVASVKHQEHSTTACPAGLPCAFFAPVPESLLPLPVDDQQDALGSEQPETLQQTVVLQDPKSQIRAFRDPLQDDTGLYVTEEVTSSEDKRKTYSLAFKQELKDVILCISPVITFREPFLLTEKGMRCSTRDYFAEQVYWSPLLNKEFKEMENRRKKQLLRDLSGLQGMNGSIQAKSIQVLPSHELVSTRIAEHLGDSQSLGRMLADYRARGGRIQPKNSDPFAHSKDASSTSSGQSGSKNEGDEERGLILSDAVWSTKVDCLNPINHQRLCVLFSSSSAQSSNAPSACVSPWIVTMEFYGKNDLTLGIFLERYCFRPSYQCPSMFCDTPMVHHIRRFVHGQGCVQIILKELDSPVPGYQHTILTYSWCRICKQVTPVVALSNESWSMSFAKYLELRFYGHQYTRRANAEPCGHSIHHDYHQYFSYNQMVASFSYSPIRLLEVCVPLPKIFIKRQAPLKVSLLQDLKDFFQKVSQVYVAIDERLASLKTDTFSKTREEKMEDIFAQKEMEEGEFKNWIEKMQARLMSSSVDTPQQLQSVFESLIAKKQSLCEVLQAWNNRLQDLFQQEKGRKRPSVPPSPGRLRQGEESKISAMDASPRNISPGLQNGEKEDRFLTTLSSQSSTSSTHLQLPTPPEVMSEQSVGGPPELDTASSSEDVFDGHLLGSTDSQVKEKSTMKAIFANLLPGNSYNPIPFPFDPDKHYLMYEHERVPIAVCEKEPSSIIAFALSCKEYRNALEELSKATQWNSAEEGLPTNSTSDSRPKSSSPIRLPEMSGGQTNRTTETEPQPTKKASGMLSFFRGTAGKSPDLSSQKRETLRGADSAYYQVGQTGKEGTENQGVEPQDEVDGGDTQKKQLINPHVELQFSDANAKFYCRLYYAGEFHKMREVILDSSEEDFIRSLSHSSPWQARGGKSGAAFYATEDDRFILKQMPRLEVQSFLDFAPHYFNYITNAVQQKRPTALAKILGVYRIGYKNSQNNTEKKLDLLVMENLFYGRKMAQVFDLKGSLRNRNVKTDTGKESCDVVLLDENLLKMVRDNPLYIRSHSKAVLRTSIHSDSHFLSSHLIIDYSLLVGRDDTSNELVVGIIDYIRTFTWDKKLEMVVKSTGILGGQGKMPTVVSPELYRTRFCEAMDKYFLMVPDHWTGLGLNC

Cc1cccc(-c2cc3nccc(N4CCOCC4)c3s2)c1 [BK40197]
inhibition at 10 µM (KIT (V559D)): 99.7%
remaining binding at 10 µM (KIT (V559D); lower = stronger binding, read-out: KIT (V559D) %Ctrl @ 10000nM (POC)): 0.35%
inhibition at 10 µM (DDR1): 0%
remaining binding at 10 µM (DDR1; lower = stronger binding, read-out: DDR1 %Ctrl @ 10000nM): 100%
inhibition at 10 µM (PIKFYVE): 99.6%
remaining binding at 10 µM (PIKFYVE; lower = stronger binding, read-out: PIKFYVE %Ctrl @ 10000nM (POC)): 0.4%
Platform Distance (TgAPP mice; [2]): 0 and 0.487 and 0.423 and 1.393 and 0.128 and 0.196 and 0.299 and 0.391
Platform Entries (TgAPP mice; [2]): 0 and 3 and 4 and 8 and 1 and 2
Quad Distance (TgAPP mice; [2]): 2.071 and 3.416 and 4.643 and 7.432 and 1.451 and 3.963 and 3.288 and 3.437 and 3.953
Quad Distance/Total (TgAPP mice; [2]): 0.09759 and 0.2373 and 0.3151 and 0.3933 and 0.09964 and 0.2157 and 0.2602 and 0.2506 and 0.2518
Quad Entries (TgAPP mice; [2]): 3 and 7 and 8 and 16 and 5 and 6 and 4
Quad Time (TgAPP mice; [2]): 9.1 and 12.9 and 22.8 and 25.1 and 6.9 and 11.1 and 16.2 and 14.3 and 14.6
Total Distance (TgAPP mice; [2]): 21.221 and 14.396 and 14.736 and 18.898 and 14.562 and 18.377 and 12.635 and 13.714 and 15.701
Platform Latency (TgAPP mice; MWM Probe, single animal values, listed as 197, in s): 60 and 2.1 and 31.3 and 11.1 and 21.2 and 56 and 26.7 and 7.2
Platform Time (TgAPP mice; [3]): 0 and 1.9 and 1.5 and 5.2 and 0.3 and 0.7 and 1 and 1.4
Quad Latency (TgAPP mice; [3]): 4.7 and 3 and 16.9 and 2.3 and 4.3 and 3.9 and 21.1 and 6.8 and 3.2
Quad Time per Entry (TgAPP mice; [3]): 3.033 and 1.843 and 2.85 and 1.569 and 1.38 and 1.85 and 4.05 and 3.575 and 1.825
Training Day 1 AVG (TgAPP mice; MWM training, Day 1, group average): 45.4333
Training Day 1, mean of the three trials per animal (TgAPP mice; MWM training, Day 1, per-animal mean, listed as 197): 43.78 and 60 and 43.62 and 54.8167 and 46.8067 and 44.7133 and 26.0367 and 29.1267
Training Day 1, trial 1 (TgAPP mice; [4]): 60 and 47.21 and 31.28 and 46.64
Training Day 1, trial 2 (TgAPP mice; [4]): 11.34 and 60 and 54.03 and 25.14 and 29.4
Training Day 1, trial 4 (TgAPP mice; [4]): 60 and 23.65 and 44.45 and 26.39 and 14.14 and 21.69 and 11.34
Training Day 2 AVG (TgAPP mice; MWM training, Day 2, group average): 47.2204
Training Day 2, mean of the three trials per animal (TgAPP mice; MWM training, Day 2, per-animal mean, listed as 197): 13.1033 and 49.5833 and 60 and 36.82 and 56.3433 and 52.21 and 40.7533 and 56.17
Training Day 2, trial 1 (TgAPP mice; [5]): 7.57 and 60
Training Day 2, trial 2 (TgAPP mice; [5]): 5.62 and 60 and 36.25 and 49.03 and 36.63 and 55.69
Training Day 2, trial 4 (TgAPP mice; [5]): 26.12 and 28.75 and 60 and 14.21 and 6.57 and 48.51
Training Day 3 AVG (TgAPP mice; MWM training, Day 3, group average): 28.2515
Training Day 3, mean of the three trials per animal (TgAPP mice; MWM training, Day 3, per-animal mean, listed as 197): 11.39 and 34.5433 and 18.6367 and 42.7367 and 27.2267 and 23.27 and 38.7467 and 28.4767 and 29.2367
Training Day 3, trial 1 (TgAPP mice; [6]): 9.97 and 10.56 and 13.44 and 8.21 and 13.9 and 27.12 and 60 and 23.21 and 11.51
Training Day 3, trial 2 (TgAPP mice; [6]): 6.2 and 40.75 and 11.22 and 60 and 7.78 and 16.82 and 30.27 and 28.53 and 34.18
Training Day 3, trial 4 (TgAPP mice; [6]): 18 and 52.32 and 31.25 and 60 and 25.87 and 25.97 and 33.69 and 42.02
Trial 1 D4 AVG (TgAPP mice; MWM training, Day 4, Trial 1, group average): 16.0867
Trial 1 D4 (TgAPP mice; MWM training, Day 4, Trial 1, single animal values listed by group, listed as 197): 29.9 and 18.58 and 17.08 and 9.97 and 12.28 and 11 and 6.82 and 20 and 19.15
Training Day 4 AVG (TgAPP mice; MWM training, Day 4, group average): 27.9559
Training Day 4, mean of the three trials per animal (TgAPP mice; MWM training, Day 4, per-animal mean, listed as 197): 18.2367 and 14.52 and 22.8833 and 26.0267 and 20.9367 and 33.48 and 29.6433 and 39.9233 and 45.9533
Training Day 4, trial 1 (TgAPP mice; [7]): 33 and 13.59 and 44.97 and 60 and 41.71 and 20.44 and 36.65
Training Day 4, trial 2 (TgAPP mice; [7]): 17.08 and 9.97 and 12.28 and 11 and 6.82 and 20 and 19.15 and 29.9 and 18.58
Training Day 4, trial 4 (TgAPP mice; [7]): 4.63 and 20 and 11.4 and 7.08 and 14.28 and 60 and 9.78 and 53.22 and 59.28
Morris water maze training trials: time to locate the platform (TgAPP mice; TgAPP mice, BK40143 5 mg/kg, BK40197 45 mg/kg IP, 6 wk, vs DMSO): locate the platform significantly quicker on later training trials
Aβ concentration in brain lysate (ELISA) [1]: significantly reduced Aβ and pTau (396) concentrations
